We go through four molecules from patent publication US20100234351A1, “FUSED NITROGEN-COMPRISING HETEROCYCLIC COMPOUND” (TAKEDA PHARMACEUTICAL COMPANY LIMITED, priority 2006, published 2010).

The target of assay [1] is T1, HER2 intracellular domain (Homo sapiens, UniProt P04626).
T1 construct: made in house; host or cells: SF-21 insect cells infected with recombinant baculovirus BAC-HER2
Description: Measurement of HER2 kinase inhibitory activity. Type of assay: biochemical. Conditions: compound 1.0 μM, poly-Glu:Tyr (4:1) substrate, [γ-32P]ATP, read-out: Inhibitory rate (%) at 1.0 μM. On the procedure: Human HER2 gene was cloned by RT-PCR using total RNA prepared from MCF7 cells as a template. The primer used for RT-PCR was prepared from base sequence (Genbank Accession No. M11730) information of HER2 gene, adding base sequence encoding DYKDDDD peptide and a restriction enzyme recognition sequence to a nucleotide sequence (2176-3918 of Genbank Accession No. M11730 as a base, and corresponding to 676-1255 amino acid of Genbank Accession No. NP_004439 as a protein) encoding the HER2 intracellular domain region, so that a DYKDDDD peptide tag would be attached to the N-terminus of the protein. The base sequence of the primer is shown in below.
The RT reaction was performed using Superscript First-Strand Synthesis System for RT-PCR (Invitrogen) and the PCR reaction was performed using KOD-plus kit (TOYOBO). The obtained PCR product was electrophoresed on agarose gel (1%), and the DNA fragment amplified by PCR was recovered from the gel, and then digested with restriction enzymes Sal I and Sph I. The DNA treated with the restriction enzymes was electrophoresed on agarose gel (1%), and the obtained DNA fragment was recovered and ligated to plasmid pFASTBAC1 (Invitrogen) digested with restriction enzymes Sal I and Sph I to give expression plasmid pFB-HER2. The base sequence of the inserted fragment was confirmed and found to be identical with the base sequence of HER2 intracellular domain (2176-3918 of Genbank Accession M11730). Furthermore, using BAC-TO-BAC Baculovirus Expression System (Invitrogen), recombinant baculovirus BAC-HER2 was prepared.
SF-21 cells were sown at 1×10^6 cells/mL to 1 L of Sf-900II SFM medium (Invitrogen) containing 10% fetal calf serum (trace), 50 mg/L gentamicin (Invitrogen) and 0.1% Pluronic F-68 (Invitrogen), and cultured with shaking in 2 L volume Erlenmeyer flask at 27° C., 100 rpm. After culturing for 24 hr, recombinant baculovirus BAC-HER2 (13.4 mL) was added thereto, and the cells were further cultured for 3 days. The culture medium was centrifuged at 2,000 rpm for 5 min to give virus-infected cells. The infected cells were washed with phosphate buffered saline (Invitrogen), centrifuged under the same conditions, and preserved at −80° C. The cryopreserved cells were thawed in ice and suspended in buffer A (50 mM Tris buffer (30 mL, pH 7.4) containing 20% glycerol, 0.15 M NaCl) supplemented with Complete Protease Inhibitor (Boehringer). The cells were ruptured 3 times with a Polytron homogenizer (Kinematica) at 20,000 rpm for 30 sec. The disrupt was clarified by centrifugation at 40,000 rpm for 30 min and filtered with a 0.45 μm filter. The filtrate was passed through a column packed with Anti-FLAG M2 Affinity Gel (4 mL, Sigma Aldrich CO.) at a flow rate of about 0.5 mL/min. The column was washed with buffer A, and eluted with buffer A containing 100 μg/mL of FLAG peptide. The eluate was concentrated with Vivaspin 20 (Vivascience) having a molecular weight cut off of 30K. The concentrate was purified by gel filtration using Hi-Load 16/60 Superdex 200pg (GE Healthcare Bioscience) equilibrated with buffer A. The fractions containing HER2 intracellular domain were collected and cryopreserved at −80° C.
HER2 kinase reaction was carried out using 96-well plate. As a buffer for Kinase reaction, a buffer of a composition of 50 mM Tris-HCl (pH 7.5), 5 mM MnCl2, 2 mM dithiothreitol and 0.01% Tween-20 was used. The compound of the present invention was dissolved in dimethyl sulfoxide (DMSO), and diluted with a buffer for kinase reaction so that the DMSO concentration would become 0.1% during kinase reaction. The compound solution (10 μL) was mixed with a buffer for kinase reaction (20 μL) containing the HER2 intracellular domain (0.625 μg/mL) obtained in Experimental Example 1B and a polypeptide substrate poly-Glu:Tyr (4:1) (12.5 μg/mL, Sigma Ltd.) and the mixture was stood for 5 min at room temperature. […]

Assay [2] concerns human breast cancer cell BT-474. Description: Inhibitory action on breast cancer cell BT-474 proliferation in vitro. Type of assay: cell-based. Conditions: 120 h, BT-474 cells, cultured 5 days with compound, SRB staining of cell protein. Here is the method:
A suspension of human breast cancer cell BT-474 (100 μl (6,000 cells)) were plated to 96-well microplate and cultured in an incubator (37° C., 5% carbon dioxide). On the following day, 100 μl of a solution of each test compound previously diluted serially in 2-fold, was added to give indicated dose, and the cells were cultured for 5 days. The culture medium containing the test compound was removed, and the cells were washed, and fixed with 50% trichloroacetic acid, and 0.4% w/v) SRB solution (dissolved in 1% acetic acid) was added to stain the cell protein (Skehan et al., Journal of the National Cancer Institute, Vol. 82, pp. 1107-1112, 1990). After washing with a 1% acetic acid solution, 100 μl of Tris solution (10 mM) was added to extract the pigment and the absorbance was measured at a wavelength of 550 nm to quantify the amount of cells as protein content. Taking as 100% the protein content for the control group, which received no test compound solution, the ratio of the residual protein content for each treatment group was determined, and the compound concentration required to achieve 50% suppression of the residual cell content relative to the control (IC50 value) was calculated.

Assay [3] addresses T2, EGFR intracellular domain (Homo sapiens, UniProt P00533).
T2 construct: made in house; host or cells: SF-21 insect cells infected with recombinant baculovirus BAC-EGFR
Description: Assay of EGFR kinase inhibitory activity. Type of assay: biochemical. The conditions noted are these: compound 1.0 μM, poly-Glu:Tyr (4:1) substrate, [γ-32P]ATP, read-out: Inhibitory rate (%) at 1.0 μM. Here is the method:
Human EGFR gene was cloned by RT-PCR using total RNA prepared from A431 cell as a template. The primer used for RT-PCR was prepared from base sequence (Genbank Accession No. X00588) information of EGFR gene, adding DYKDDDD base sequence encoding the peptide and a restriction enzyme recognition sequence to a base sequence (2191-3819 of Genbank Accession No. X00588 as a base, and corresponding to 669-1210 amino acid of Genbank Accession No. NP_005219 as a protein) encoding the EGFR intracellular domain, so that a DYKDDDD peptide tag would be attached to the N-terminus of the protein. The base sequence of the primer is shown in below.
The RT reaction was performed using Superscript First-Strand Synthesis System for RT-PCR (Invitrogen), and PCR reaction was performed using KOD-plus kit (TOYOBO). The obtained PCR product was electrophoresed on agarose gel (1%), and the DNA fragment amplified by PCR was recovered from the gel, and then digested with restriction enzymes Sal I and Sph I. The DNA treated with the restriction enzymes was electrophoresed on agarose gel (1%), and the obtained DNA fragment was recovered and ligated to plasmid pFASTBAC1 (Invitrogen) digested with restriction enzymes Sal I and Sph I to give expression plasmid pFB-EGFR. The base sequence of the inserted fragment was confirmed and found to be identical with the base sequence of the EGFR intracellular domain (2191-3819 of Genbank Accession X00588). Furthermore, virus stock BAG-EGFR of recombinant Baculovirus was prepared using BAC-TO-BAC Baculovirus Expression System (Invitrogen).
SF-21 cells were sown at 1×10^6 cells/mL to 1 L of Sf-900II SFM medium (Invitrogen) containing 10% fetal calf serum (trace), 50 mg/L Gentamicin (Invitrogen) and 0.1% Pluronic F-68 (Invitrogen), and cultured with shaking in a 2 L Erlenmeyer flask at 27° C., 100 rpm. After culture for 24 hr, recombinant Baculovirus BAC-EGFR (13.4 mL) was added thereto, and the cells were further cultured for 3 days. The culture medium was centrifuged at 2,000 rpm for 5 min to give virus infected cells. The infected cells were washed with phosphate buffered saline (Invitrogen), centrifuged under the same conditions, and preserved at −80° C. The cryopreserved cells were thawed in ice and suspended in 30 mL of buffer A containing Complete Protease Inhibitor (Boehringer) (50 mM tris buffer (pH 7.4) containing 20% Glycerol, 0.15 M NaCl). The cells were disrupted 3 times at 20,000 rpm for 30 sec using a polytron homogenizer (Kinematica). The disrupt was clarified by centrifugation at 40,000 rpm for 30 min and filtered through a 0.45 μm filter. The filtrate was passed through a column packed with 4 mL of Anti-FLAG M2 Affinity Gel (Sigma Aldrich Co.) at a flow rate of about 0.5 mL/min. The column was washed with buffer A, and eluted with buffer A containing 100 μg/mL of FLAG peptide. The eluate was concentrated with Vivaspin 20 having a molecular weight cut off of 30 K (Vivascience). The concentrate was purified by gel filtration using Hi-Load 16/60 Superdex 200 pg (GE Healthcare Bioscience) equilibrated with buffer A. The fractions containing EGFR intracellular domain were collected and cryopreserved at −80° C.
EGFR kinase reaction was carried out using a 96-well plate. As a buffer for Kinase reaction, a buffer of a composition of 50 mM Tris-HCl (pH 7.5), 5 mM MnCl2, 2 mM dithiothreitol and 0.01% Tween-20 was used. […]

Counter-ions that a name gives are not always drawn.

T2 sequence (P00533 669-1210): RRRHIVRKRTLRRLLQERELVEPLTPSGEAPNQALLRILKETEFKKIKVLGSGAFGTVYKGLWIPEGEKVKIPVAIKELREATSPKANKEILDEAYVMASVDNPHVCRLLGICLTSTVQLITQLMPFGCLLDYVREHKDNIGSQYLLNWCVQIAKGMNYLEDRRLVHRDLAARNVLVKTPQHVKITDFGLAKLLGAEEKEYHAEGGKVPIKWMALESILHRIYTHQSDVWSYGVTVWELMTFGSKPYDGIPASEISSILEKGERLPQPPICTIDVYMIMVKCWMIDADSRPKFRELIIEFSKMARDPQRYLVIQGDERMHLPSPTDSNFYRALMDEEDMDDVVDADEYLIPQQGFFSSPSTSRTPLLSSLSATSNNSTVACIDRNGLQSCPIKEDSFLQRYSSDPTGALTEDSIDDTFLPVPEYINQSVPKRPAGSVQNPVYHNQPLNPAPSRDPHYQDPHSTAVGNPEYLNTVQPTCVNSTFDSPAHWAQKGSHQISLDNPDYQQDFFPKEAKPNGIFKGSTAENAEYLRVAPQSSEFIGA
T1 sequence (P04626 676-1255): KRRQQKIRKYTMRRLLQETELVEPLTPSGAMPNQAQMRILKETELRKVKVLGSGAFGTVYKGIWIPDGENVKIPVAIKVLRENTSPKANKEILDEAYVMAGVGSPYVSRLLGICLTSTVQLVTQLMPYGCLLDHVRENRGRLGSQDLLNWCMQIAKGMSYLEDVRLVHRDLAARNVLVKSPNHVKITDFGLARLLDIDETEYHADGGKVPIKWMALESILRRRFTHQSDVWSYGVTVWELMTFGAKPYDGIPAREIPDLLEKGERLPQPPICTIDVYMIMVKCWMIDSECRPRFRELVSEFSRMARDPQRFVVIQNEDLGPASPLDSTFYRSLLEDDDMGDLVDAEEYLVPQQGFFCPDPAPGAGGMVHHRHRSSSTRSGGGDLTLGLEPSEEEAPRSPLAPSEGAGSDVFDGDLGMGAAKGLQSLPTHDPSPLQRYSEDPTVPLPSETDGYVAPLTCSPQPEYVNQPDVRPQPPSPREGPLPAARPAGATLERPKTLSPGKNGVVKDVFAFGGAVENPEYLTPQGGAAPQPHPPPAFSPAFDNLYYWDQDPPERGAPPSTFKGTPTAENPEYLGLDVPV

With `COCCOCCNC(=O)C1=Cc2c(ncnc2Nc2ccc(Oc3cccc(C(F)(F)F)c3)c(Cl)c2)NCC1` [Example 122, 4-({3-chloro-4-[3-(trifluoromethyl)phenoxy]phenyl}amino)-N-[2-(2-methoxyethoxy)ethyl]-8,9-dihydro-7H-pyrimido[4,5-b]azepine-6-carboxamide], in assay [1], the inhibition at 1 µM came to 96%. Further, in assay [2], the IC50 (commonly the concentration needed to halve the response being measured) is under 0.1 µM.
As to `O=C(NCCOCCO)C1=Cc2c(ncnc2Nc2ccc(Oc3cccc(Cl)c3)c(Cl)c2)NCC1` [Example 143, 4-{[3-chloro-4-(3-chlorophenoxy)phenyl]amino}-N-[2-(2-hydroxyethoxy)ethyl]-8,9-dihydro-7H-pyrimido[4,5-b]azepine-6-carboxamide hydrochloride], the inhibition at 1 µM in assay [3] is 97%. Besides, in assay [2], the IC50 is under 0.1 µM.
As for `O=C(NCC(O)CO)C1=Cc2c(ncnc2Nc2ccc(Oc3cccc(C(F)(F)F)c3)c(Cl)c2)NCC1` (stereo not shown) [Example 136, 4-({3-chloro-4-[3-(trifluoromethyl)phenoxy]phenyl}amino)-N-(2,3-dihydroxypropyl)-8,9-dihydro-7H-pyrimido[4,5-b]azepine-6-carboxamide], in assay [3], the inhibition at 1 µM worked out at 97%.
`O=C(NCCOCCO)C1=Cc2c(ncnc2Nc2ccc(Oc3cccc(C(F)(F)F)c3)c(Cl)c2)NCC1` [Example 119, 4-({3-chloro-4-[3-(trifluoromethyl)phenoxy]phenyl}amino)-N-[2-(2-hydroxyethoxy)ethyl]-8,9-dihydro-7H-pyrimido[4,5-b]azepine-6-carboxamide]: the inhibition at 1 µM in assay [3] was 96%. Besides, the IC50 in assay [2] was under 0.1 µM.
